Values of other authors as cited in US20180228146A1, “INSECTICIDAL COMPOSITION AND METHOD” (priority 2014, published 2018).
In brackets after ≈: the same amount, converted by molar mass.

CCOP(=S)(OCC)Oc1nc(Cl)c(Cl)cc1Cl [chlorpyrifos, O,O-diethyl O-3,5,6-trichloro-2-pyridyl phosphorothioate]
Henry's law constant at 25° C. (25° C.): 6.76 × 10^−1 Pa m^3 mol^−1
Vapour pressure at 25° C. (25° C.): 2.7 mPa
Solubility Acetone (25° C.) (acetone, 25° C.): 6500 g/kg
Solubility Benzene (25° C.) (benzene, 25° C.): 7900 g/kg
Solubility Carbon disulfide (25° C.) (carbon disulfide, 25° C.): 5900 g/kg
Solubility Chloroform (25° C.) (chloroform, 25° C.): 6300 g/kg
Solubility Diethyl ether (25° C.) (diethyl ether, 25° C.): 5100 g/kg
Stability (hydrolysis, with pH): Rate of hydrolysis increases
Solubility Iso-octanol (25° C.) (iso-octanol, 25° C.): 790 g/kg
Solubility Methanol (25° C.) (methanol, 25° C.): 450 g/kg
DT50 (phosphate buffer, pH 7, 15° C.) (phosphate buffer, pH 7, 15° C.): 100 d
Solubility water (25° C.) (water, 25° C.): 1.4 µg/mL (≈ 3.99 µM)
DT50 (water, pH 8, 25° C.) (water, pH 8, 25° C.): 1.55 d
Solubility Xylene (25° C.) (xylene, 25° C.): 5000 g/kg
